Results as given in patent US20240358672A1, “APPLICATION OF GENISTEIN AND ITS PHOSPHATE ESTER DERIVATIVE AND PHARMACEUTICAL COMPOSITION COMPRISING THE SAME” (National Taiwan University, priority 2023, published 2024).

Legend:
[1] = tested on: C57BL/6J mice; test: Neurobehavioral tetrad (Billy Martin tetrad) in mice
Method: FIG. 13 illustrate the effect of genistein on the neurobehavioral effects of Δ^9-THC according to Example 12. C57BL/6J mice were exposed to (1) vehicle control (intraperitoneal [i.p.], and oral [p.o.], n=8), (2) Δ^9-THC at 20 mg/kg i.p. and p.o. vehicle (n=9), (3) genistein at 50 mg/kg p.o. and i.p. vehicle (n=8), and (4) combination of Δ^9-THC at 20 mg/kg i.p. and genistein at 50 mg/kg p.o. (n=9). […] Hypothermia was assessed by measuring body temperature using a rectal probe before and 60 min after treatment. The catalepsy test measures the time a mouse remained immobile on the bar. Analgesia was measured by placing mice on a hot plate and recording the time for the mouse to withdraw or lick.
These are described as the Billy Martin tetrad.
Therefore, the neurological effects of Δ^9-THC and genistein co-administration were tested in C57BL/6J mice treated with vehicle, genistein, Δ^9-THC, or in combination. The tetrad effects were assessed using an activity chamber for mobility, a hot plate for analgesia, a rectal probe for hypothermia, and the bar test for […].

[2] = tested on: mouse thoracic arteries; test: Wire myograph of isolated mouse thoracic aortas; type: in vivo, C57BL/6J mice
Method: FIG. 7A: Isometric tension recordings of isolated mice thoracic aortas were performed using a wire myograph. Vascular concentration-dependent relaxation was induced by acetylcholine (ACh) in pre-constricted mouse thoracic arteries. […] FIG. 7C: Luminex analysis of inflammatory cytokines in plasma of C57BL/6J mice treated with vehicle control, Δ^9-THC, or Δ^9-THC plus genistein. […] FIG. 7E: Effect of Δ^9-THC and genistein on NF-κB phosphorylation in mouse thoracic artery. Total cell lysates were prepared, and the expressions of phosphor-NF-κB were analyzed by ELISA (upper left). Superoxide dismutase (SOD) activity of serum from mouse (bottom left). The effect of Δ^9-THC and genistein on NF-κB phosphorylation in mouse thoracic artery tissues (n=5). Total cell lysates were prepared, and the expressions of NF-κB, phosphorylated NF-κB, and β-actin were analyzed by western blot analysis (right panel). FIG. 7F: The levels reduced glutathione (GSH), Oxidized glutathione (GSSG), Total glutathione (T-GSH) and GSH/GSSG in the serum samples of mice were detected. Plasma isolated from C57BL/6J mice (n=5) treated with vehicle control, Δ^9-THC, genistein, or their combination every day for 30 days was analyzed by the glutathione colorimetric assay kit (BioVision, K261).

[3] = tested on: LDL receptor knockout mice (B6.129S7-Ldlr^tm1Her/J); test: Chronic atherosclerosis in Ldlr−/− mice on high-fat diet; type: in vivo, mouse; settings: HFD 12 weeks
Source text: FIG. 9A to 9E illustrate the effect of Δ^9-THC and genistein on the formation of chronic atherosclerosis according to Example 10. FIG. 9A: The body weights of Ldlr^−/− mice after exposure to (1) vehicle control (n=10), (2) Δ^9-THC (n=12), or (3) Δ^9-THC plus genistein (n=12). FIG. 9B: Lipid profiles of serum samples (left panel) and blood pressure (right panel) of Ldlr^−/− mice after exposure to (1) vehicle control (n=10 (left), n=3 (right)), (2) Δ^9-THC (n=12 (left), n=4 (right)), and (3) Δ^9-THC plus genistein (n=12 (left), n=4 (right)). The blood pressure was measured by tail-cuff. FIG. 9C: Oil red O staining of atherosclerotic plaques in cross-sections at the aortic root level (upper panel). Quantitation of atherosclerotic plaques: (1) vehicle control (n=10), (2) Δ^9-THC (n=10), and (3) Δ^9-THC plus genistein (n=11) (bottom panel). FIG. 9D: Gross images of oil red O stained Ldlr^−/− thoracic aorta are shown (left panel). Quantification of plaque size by en face analysis of thoracic aorta after exposure to (1) vehicle control (n=10), (2) Δ^9-THC (n=12), or (3) Δ^9-THC plus genistein (n=12). FIG. 9E: Immunostaining of CD68 in cross-sections at the aortic root level (upper panel). Quantitation of CD68-positive area from (1) vehicle control (n=10), (2) Δ^9-THC (n=9), and (3) Δ^9-THC plus genistein (n=10) (bottom panel).
In this part, In order to investigate the effect of Δ^9-THC and genistein in chronic atherosclerosis formation, LDL receptor knockout mice (B6.129S7-Ldlr^tm1Her/J) were fed a high-fat diet (HFD) for 12 weeks and treated with (1) vehicle control (n=10 to 12/group), (2) Δ^9-THC (n=10 to 12/group, administered Δ^9-THC 1 mg/kg), or (3) Δ^9-THC and genistein (n=10 to 12/group, administered Δ^9-THC 1 mg/kg plus genistein 50 mg/kg). […] After 12 weeks of HFD, the mice were euthanized, and the atherosclerotic lesion area was examined by cross-sections of the aortic root and an en face analysis of the thoracic aorta. […] Macrophage recruitment in the aortic root was analyzed using aortic plaque stained with an anti-CD68 antibody.

[4] = target: CB1 receptor (Homo sapiens, UniProt P21554); test: GTPase-Glo assay (in vitro GTPase assay); type: biochemical
Chain of CB1 receptor (P21554 whole entry): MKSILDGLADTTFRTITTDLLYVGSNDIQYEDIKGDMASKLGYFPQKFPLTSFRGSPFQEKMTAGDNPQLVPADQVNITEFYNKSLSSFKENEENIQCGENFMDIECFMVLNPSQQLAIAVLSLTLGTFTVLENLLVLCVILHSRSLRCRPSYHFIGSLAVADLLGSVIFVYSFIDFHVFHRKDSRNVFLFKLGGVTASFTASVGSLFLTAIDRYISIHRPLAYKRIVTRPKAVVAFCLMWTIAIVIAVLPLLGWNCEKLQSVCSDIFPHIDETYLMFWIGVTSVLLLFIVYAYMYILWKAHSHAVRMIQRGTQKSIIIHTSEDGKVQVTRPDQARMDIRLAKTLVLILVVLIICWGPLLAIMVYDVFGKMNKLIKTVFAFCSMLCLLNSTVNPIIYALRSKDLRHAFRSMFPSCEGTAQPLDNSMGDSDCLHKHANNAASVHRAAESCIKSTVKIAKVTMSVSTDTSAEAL

[5] = tested on: various organs; settings: in vivo
[6] = tested on: hiPSC-ECs; test: Western blot / immunofluorescence of p38 and NF-κB (p65) in hiPSC-ECs; settings: 48 hours
[7] = tested on: HUVECs; test: qPCR gene expression in HUVECs; settings: 5 μM Δ^9-THC, 48 hours, normalized to GAPDH
[8] = tested on: hiPSC-ECs; test: CellTiter-Glo cell viability, hiPSC-ECs; settings: various concentrations, 24 or 48 hours
[9] = tested on: hiPSC-ECs; test: Wash-out experiments, inflammation-related gene expression in hiPSC-ECs; settings: 5 μM Δ^9-THC 48 hours, then fresh medium
[10] = tested on: hiPSC-ECs; test: Monocyte (U937) adhesion assay on hiPSC-ECs; settings: 5 μM Δ^9-THC alone, 48 hours
[11] = Δ^9-THC 1 mg/kg plus genistein 50 mg/kg
[12] = 10 μM genistein with 5 μM Δ^9-THC

O=c1c(-c2ccc(O)cc2)coc2cc(O)cc(O)c12 [genistein] was tested, and the tetrad effects ([1]; genistein 50 mg/kg p.o. alone) was “did not affect tetrad effects”, the “Δ^9-THC neurobehavioral effects” value ([1]; Δ^9-THC 20 mg/kg i.p. and genistein 50 mg/kg p.o.) was “could not attenuate” and the “Δ^9-THC-induced endothelial dysfunction” value [2, 11] was “mitigated the effect”. The “CD68-positive area in the aortic root” value [3, 11] was “rescued”, the “plaque formation, en face analysis of the thoracic aorta (oil red O)” value [3, 11] was “improvement of plaque formation” and the “plaque size, cross-sections of the aortic root” value [3, 11] was “ameliorated plaque size”. For the same compound, the “serum lipid profiles or blood pressure” value [3, 11] was “Neither Δ^9-THC nor cotreatment with Δ^9-THC and genistein affected”, the “function at CB1 in in vitro GTPase assay” value [4] was “neutral antagonist” and the “GTP turnover compared with Apo” value ([4]; GTPase-Glo assay) was “same GTP turnover as Apo”. The “toxicity to various organs” value [5] was “did not exhibit any toxicity to various organs”, the “Δ^9-THC-induced NF-κB phosphorylation” value [6, 12] was “attenuated NF-κB phosphorylation” and the “Δ^9-THC-induced p38 phosphorylation” value [6, 12] was “decreased”.
In the case of CCCCCc1cc(O)c2c(c1)OC(C)(C)[C@@H]1CCC(C)=C[C@@H]21 [Δ^9-THC, Δ^9-tetrahydrocannabinol], the “analgesia (hot plate)” value ([1]; Δ^9-THC 20 mg/kg i.p.) was “analgesia”, the “hypothermia (rectal probe)” value ([1]; Δ^9-THC 20 mg/kg i.p.) was “hypothermia” and the “mobility (activity chamber)” value ([1]; Δ^9-THC 20 mg/kg i.p.) was “decreased mobility”. The “sedation (bar test)” value ([1]; Δ^9-THC 20 mg/kg i.p.) was “sedation”, the antioxidant-related gene expression [7] was “reduced the antioxidant-related gene expression” and the “expression of inflammation-related genes” value [7] was “induced the expression of inflammation-related genes”. The “cytotoxicity (cell viability)” value [8] was “induced cytotoxicity”, the “endothelial function (ACh-induced relaxation)” value ([2]; Δ^9-THC 1 mg/kg) was “induced endothelial dysfunction” and the “CD68-positive area in the aortic root” value ([3]; Δ^9-THC 1 mg/kg) was “significantly increased”. For the same compound, the “plaque size, cross-sections of the aortic root” value ([3]; Δ^9-THC 1 mg/kg) was “significantly increased plaque size”, the “serum lipid profiles or blood pressure” value ([3]; Δ^9-THC 1 mg/kg) was “Neither Δ^9-THC nor cotreatment with Δ^9-THC and genistein affected” and the “time the induced expression of proinflammatory cytokines and chemokines was sustained (recovery time)” value [9] was 8 to 10 days. For the same compound, the “p65 (NF-κB) phosphorylation” value ([6]; 5 μM Δ^9-THC alone) was “caused p65 phosphorylation”, the “phosphorylation of p38” value ([6]; 5 μM Δ^9-THC alone) was “increased phosphorylation of p38” and the “nuclear translocation of NF-κB (p65)” value ([6]; 5 μM Δ^9-THC) was “induced”. The “monocyte adhesion to hiPSC-ECs” value [10] was “increased adhesion”.
